Data as given in publication PMC8612152, “Mapping Molecular Recognition of β1,3-1,4-Glucans by a Surface Glycan-Binding Protein from the Human Gut Symbiont Bacteroides ovatus” (Microbiology Spectrum, 2021).

Experiments:
Assay type in all cases: binding
BoSGBPMLG-A [1] = biological target: T1, BoSGBPMLG-A (Bacteroides ovatus, UniProt A0AAN3A7L1); test: microscale thermophoresis; conditions: 50 mM HEPES pH 7.5, 100 mM NaCl, 5 mM CaCl2, 5 mM TCEP, 0.05% Tween 20, 25°C; protein NT-647 labelled; one-site model
T1 construct: gene BACOVA_02743; residues 24-558, signal peptide and lipidation Cys excluded, N-terminal His6 tag (pHTP1-A57), expressed in E. coli BL21(DE3); NT-647 dye labelled for MST
T1 sequence (A0AAN3A7L1 24-558): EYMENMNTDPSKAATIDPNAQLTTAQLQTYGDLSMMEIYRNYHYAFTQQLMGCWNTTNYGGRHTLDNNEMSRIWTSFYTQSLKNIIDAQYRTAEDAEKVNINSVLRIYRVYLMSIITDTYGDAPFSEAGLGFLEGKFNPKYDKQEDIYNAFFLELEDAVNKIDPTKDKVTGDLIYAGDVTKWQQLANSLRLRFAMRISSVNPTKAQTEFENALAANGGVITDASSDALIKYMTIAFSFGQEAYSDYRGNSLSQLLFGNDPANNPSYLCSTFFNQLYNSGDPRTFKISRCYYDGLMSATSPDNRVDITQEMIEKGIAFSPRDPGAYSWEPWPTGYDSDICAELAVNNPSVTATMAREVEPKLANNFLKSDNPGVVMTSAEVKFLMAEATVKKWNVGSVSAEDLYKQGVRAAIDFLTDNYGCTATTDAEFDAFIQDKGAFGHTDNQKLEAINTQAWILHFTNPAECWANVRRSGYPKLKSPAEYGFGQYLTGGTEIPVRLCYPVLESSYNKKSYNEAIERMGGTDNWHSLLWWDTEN

BoSGBPMLG-A-ZB = biological target: T2, BoSGBPMLG-A-ZB (Bacteroides ovatus, UniProt A0AAN3A7L1); test: X-ray crystal structure of the complex, […] Å; conditions: co-crystallised after overnight incubation with 0.33 mM ligand, 1 mM MgCl2; pH 5.5
T2 construct: gene BACOVA_02743; residues 39-558, N-terminal His6 and Zbasic (ZB) tag (pNIC-ZB), expressed in E. coli BL21(DE3); model covers residues 40-559 as printed; 68 kDa
T2 sequence (A0AAN3A7L1 39-558): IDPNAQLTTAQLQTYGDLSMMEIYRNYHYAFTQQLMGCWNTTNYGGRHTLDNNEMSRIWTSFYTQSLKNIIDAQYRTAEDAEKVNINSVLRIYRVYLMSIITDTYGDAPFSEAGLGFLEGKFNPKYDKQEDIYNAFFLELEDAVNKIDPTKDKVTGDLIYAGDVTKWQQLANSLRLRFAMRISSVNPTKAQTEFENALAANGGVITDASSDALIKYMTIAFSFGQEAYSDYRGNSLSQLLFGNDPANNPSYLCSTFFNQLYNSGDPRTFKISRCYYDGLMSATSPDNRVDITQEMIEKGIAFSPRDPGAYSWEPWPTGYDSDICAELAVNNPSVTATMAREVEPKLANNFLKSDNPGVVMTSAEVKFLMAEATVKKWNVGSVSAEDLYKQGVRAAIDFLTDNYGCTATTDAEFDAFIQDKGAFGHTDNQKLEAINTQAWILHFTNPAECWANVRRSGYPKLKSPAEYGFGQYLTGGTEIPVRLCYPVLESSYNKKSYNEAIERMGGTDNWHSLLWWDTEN

BoSGBPMLG-A [2] = biological target: T1, BoSGBPMLG-A; test: microscale thermophoresis; conditions: 50 mM HEPES pH 7.5, 100 mM NaCl, 5 mM CaCl2, 5 mM TCEP, 0.05% Tween 20, 25°C; protein NT-647 labelled; weak, affinity not determinable (ligand solubility)

In the case of `OC[C@H]1O[C@@H](O[C@H]2[C@H](O)[C@@H](O)[C@H](O[C@@H]3[C@@H](O)[C@H](O[C@H]4[C@H](O)[C@@H](O)[C@H](O[C@H]5[C@H](O)[C@@H](O)[C@H](O[C@H]6[C@H](O)[C@@H](CO)OC(O)[C@@H]6O)O[C@@H]5CO)O[C@@H]4CO)O[C@H](CO)[C@H]3O)O[C@@H]2CO)[C@H](O)[C@@H](O)[C@@H]1O` (stereo partly drawn) [barley-6], the Ka (BoSGBPMLG-A [1]) is reported as “(1.53 ± 0.23) x 10^5”.

For `OC[C@H]1O[C@@H](O[C@H]2[C@H](O)[C@@H](O)[C@H](O[C@H]3[C@H](O)[C@@H](O)[C@H](O[C@@H]4[C@@H](O)[C@H](O[C@H]5[C@H](O)[C@@H](O)[C@H](O[C@H]6[C@H](O)[C@@H](O)[C@H](O[C@H]7[C@H](O)[C@@H](CO)OC(O)[C@@H]7O)O[C@@H]6CO)O[C@@H]5CO)O[C@H](CO)[C@H]4O)O[C@@H]3CO)O[C@@H]2CO)[C@H](O)[C@@H](O)[C@@H]1O` (stereo partly drawn) [barley-7], the Ka (BoSGBPMLG-A [1]) was “(1.06 ± 0.18) x 10^5”.

For `OC[C@H]1O[C@@H](O[C@@H]2[C@@H](O)[C@H](O[C@H]3[C@H](O)[C@@H](O)[C@H](O[C@H]4[C@H](O)[C@@H](O)[C@H](O[C@@H]5[C@@H](O)[C@H](O[C@H]6[C@H](O)[C@@H](O)[C@H](O[C@H]7[C@H](O)[C@@H](O)[C@H](O[C@H]8[C@H](O)[C@@H](CO)OC(O)[C@@H]8O)O[C@@H]7CO)O[C@@H]6CO)O[C@H](CO)[C@H]5O)O[C@@H]4CO)O[C@@H]3CO)O[C@H](CO)[C@H]2O)[C@H](O)[C@@H](O)[C@@H]1O` (stereo partly drawn) [barley-8], the Ka (BoSGBPMLG-A [1]) was “(4.29 ± 1.15) x 10^5”.

With `OC[C@H]1O[C@@H](O[C@H]2[C@H](O)[C@@H](O)[C@H](O[C@@H]3[C@@H](O)[C@H](O[C@H]4[C@H](O)[C@@H](O)[C@H](O[C@H]5[C@H](O)[C@@H](O)[C@H](O[C@@H]6[C@@H](O)[C@H](O[C@H]7[C@H](O)[C@@H](O)[C@H](O[C@H]8[C@H](O)[C@@H](O)[C@H](O[C@H]9[C@H](O)[C@@H](CO)OC(O)[C@@H]9O)O[C@@H]8CO)O[C@@H]7CO)O[C@H](CO)[C@H]6O)O[C@@H]5CO)O[C@@H]4CO)O[C@H](CO)[C@H]3O)O[C@@H]2CO)[C@H](O)[C@@H](O)[C@@H]1O` (stereo partly drawn) [barley-9] the Ka (BoSGBPMLG-A [1]) was “(4.62 ± 1.02) × 10^5” and the “X-ray crystal structure of the complex, 1.43 Å” value (BoSGBPMLG-A-ZB) was “structure of BoSGBPMLG-A in complex with barley-9 (G4G3G4G4G3G4G4G3G)”.

`OC[C@H]1O[C@@H](O[C@H]2[C@H](O)[C@@H](O)[C@H](O[C@H]3[C@H](O)[C@@H](O)[C@H](O[C@H]4[C@H](O)[C@@H](O)[C@H](O[C@H]5[C@H](O)[C@@H](O)[C@H](O[C@H]6[C@H](O)[C@@H](O)[C@H](O[C@H]7[C@H](O)[C@@H](O)C(O)O[C@@H]7CO)O[C@@H]6CO)O[C@@H]5CO)O[C@@H]4CO)O[C@@H]3CO)O[C@@H]2CO)[C@H](O)[C@@H](O)[C@@H]1O` (stereo partly drawn) [cello-7] was tested, and the microscale thermophoresis (BoSGBPMLG-A [2]) was “For the more weakly binding cello-7, it was not possible to determine the affinity”.
